Measured values published in patent publication US20230271949A1, “GLP-1R MODULATING COMPOUNDS” (ASCLETIS BIOSCIENCE CO., LTD., priority 2022, published 2023).

Biological target: GLP-1R (Homo sapiens, UniProt P43220)
Experiment: GLP-1R agonist cAMP stimulation assay (HTRF cAMP)
Type: cell-based
Conditions: HEK293 cell line expressing GLP-1 target; HTRF cAMP agonist mode, 30 min at RT
Outline: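 GLP-1R-expressing cells were stimulated with 10-point, 3-fold compound dilutions for 30 min at RT; HTRF cAMP detection reagents were then added for 60 min and the 665/615 ratio read. Ratios were converted to cAMP via a standard curve and % activity scaled between DMSO and top-concentration GLP-1(7-37) reference wells.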

Chain of GLP-1R (P43220 24-463): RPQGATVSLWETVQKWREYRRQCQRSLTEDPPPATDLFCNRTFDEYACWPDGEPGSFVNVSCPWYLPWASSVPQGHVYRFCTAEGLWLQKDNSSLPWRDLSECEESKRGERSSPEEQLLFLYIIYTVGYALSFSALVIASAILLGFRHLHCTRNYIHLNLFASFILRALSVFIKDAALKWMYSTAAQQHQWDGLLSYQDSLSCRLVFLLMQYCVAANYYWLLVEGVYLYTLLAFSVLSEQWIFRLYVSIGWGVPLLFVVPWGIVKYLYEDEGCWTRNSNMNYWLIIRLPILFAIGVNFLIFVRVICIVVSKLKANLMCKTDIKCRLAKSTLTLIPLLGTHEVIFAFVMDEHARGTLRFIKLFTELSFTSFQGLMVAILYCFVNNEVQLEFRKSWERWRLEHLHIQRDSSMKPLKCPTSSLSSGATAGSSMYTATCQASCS

Structure (SMILES) | EC50 [nM]
Cc1n[nH]c2cc(NC(=O)c3ccc4c(c3)nc(CN3CCC(c5cccc(OCc6ccc(Cl)cc6F)n5)CC3)n4C[C@@H]3CCO3)ccc12 [Compound 94] | 372
CC1(c2ccc(Cl)cc2F)Oc2cccc(C3=CCN(Cc4nc5cc(C(=O)Nc6ccc7[nH]nc(C8CC8)c7c6)ccc5n4CC4CCO4)CC3)c2O1 (stereo not drawn) [Compound 330] | 0.88
Cc1n[nH]c2c(C(F)(F)F)cc(NC(=O)c3ccc4c(c3)nc(CN3CCC(c5cccc6c5OC(C)(c5ccc(Cl)cc5F)O6)CC3)n4CC3CCO3)cc12 (stereo not drawn) [Compound 331] | 1.27
O=C(NCC(=O)N1CC(F)(F)C[C@H]1C(=O)O)c1ccc2c(c1)nc(CN1CC=C(c3cccc(OCc4ccc(Cl)cc4F)n3)CC1)n2C[C@@H]1CCO1 [Compound 72] | 0.61
O=C(Nc1cc(F)c2[nH]ncc2c1)c1ccc2c(c1)nc(CN1CC=C(c3cccc(OCc4ccc(Cl)cc4F)n3)CC1)n2C[C@@H]1CCO1 [Compound 152] | 0.64
Cc1cc(C(=O)Nc2ccc3c(c2)nc(CN2CC=C(c4cccc(OCc5ccc(C#N)cc5F)n4)CC2)n3C[C@@H]2CCO2)cc2cn[nH]c12 [Compound 236] | 1.04
Cc1cc(NC(=O)c2ccc3c(c2)nc(CN2CC=C(c4cccc5c4OC(C)(c4ccc(Cl)cc4F)O5)CC2)n3C[C@@H]2CCO2)cc2c1NC(=O)C21CC1 (stereo partly drawn) [Compound 301] | 0.18
Cc1cc(C(=O)Nc2ccc3c(c2)nc(Cc2c(F)cc(-c4cccc5c4OC(C)(c4ccc(Cl)cc4F)O5)cc2F)n3C[C@@H]2CCO2)cc2[nH]c(=O)[nH]c12 (stereo partly drawn) [Compound 321] | 0.94
Fc1cc(Cl)ccc1COc1cccc(C2=CCN(Cc3nc4cc(-n5cnc(-c6ccn[nH]6)c5)ccc4n3C[C@@H]3CCO3)CC2)n1 [Compound 396] | 146
O=C(NCC(=O)N1CC[C@H](C(=O)O)C1)c1ccc2c(c1)nc(CN1CCC(c3cccc(OCc4ccc(Cl)cc4F)n3)CC1)n2C[C@@H]1CCO1 [Compound 54] | 79.7
CC(C)c1n[nH]c2ccc(C(=O)Nc3ccc4c(c3)nc(CN3CC=C(c5cccc6c5OC(C)(c5ccc(C#N)cc5F)O6)CC3)n4CC3CCO3)cc12 (stereo not drawn) [Compound 311] | 0.39
Cc1cc2c(C#N)ccc(COc3cccc(C4=CCN(Cc5nc6cc(C(=O)Nc7cc(F)c8[nH]nc(C)c8c7)ccc6n5C[C@@H]5CCO5)CC4)n3)c2o1 [Compound 353] | 0.44
CCc1n[nH]c2ccc(C(=O)Nc3ccc4c(c3)nc(CN3CC=C(c5cccc(OCc6ccc(C#N)cc6F)n5)CC3)n4C[C@@H]3CCO3)cc12 [Compound 231] | 0.87
Cc1n[nH]c2c(C)cc(C(=O)Nc3ccc4c(c3)nc(CN3CC=C(c5cccc6c5OC(C)(c5ccc(Cl)cc5F)O6)CC3)n4CC3CCO3)cc12 (stereo not drawn) [Compound 305] | 0.19
Cc1nn(C)c2ccc(NC(=O)c3ccc4c(c3)nc(CN3CCC(c5cccc(OCc6ccc(Cl)cc6F)n5)CC3)n4C[C@@H]3CCO3)cc12 [Compound 109] | 47
COc1n[nH]c2ccc(C(=O)Nc3ccc4c(c3)nc(CN3CC=C(c5cccc(OCc6ccc(Cl)cc6F)n5)CC3)n4C[C@@H]3CCO3)cc12 [Compound 201] | 1.99
CC1(c2ccc(Cl)cc2F)Oc2cccc(C3=CCN(Cc4nc5cc(C(=O)Nc6ccc7[nH]nc(C(F)(F)F)c7c6)ccc5n4CC4CCO4)CC3)c2O1 (stereo not drawn) [Compound 297] | 3.65
O=C(NCC(=O)N1C2CCC(C2)[C@H]1C(=O)O)c1ccc2c(c1)nc(CN1CCC(c3cccc(OCc4ccc(Cl)cc4F)n3)CC1)n2C[C@@H]1CCO1 (stereo partly drawn) [Compound 59] | 7.2
O=C(NCC(=O)N1C[C@H](O)C[C@@H]1C(=O)O)c1ccc2c(c1)nc(CN1CCC(c3cccc(OCc4ccc(Cl)cc4F)n3)CC1)n2C[C@@H]1CCO1 [Compound 46] | 42.4
Cn1c(=O)[nH]c2ccc(NC(=O)c3ccc4c(c3)nc(CN3CC=C(c5cccc(OCc6ccc(Cl)cc6F)n5)CC3)n4C[C@@H]3CCO3)cc21 [Compound 146] | 24

Structure (SMILES) | EC50 [nM]
N#Cc1ccc(COc2cccc(C3=CCN(Cc4nc5cc(NC(=O)c6cc(F)c7c(c6)C6(CC6)C(=O)N7)ccc5n4C[C@@H]4CCO4)CC3)n2)c(F)c1 [Compound 227] | 0.22
CC1(c2ccc(Cl)cc2F)Oc2cccc(C3=CCN(Cc4nc5cc(C(=O)Nc6ccc7[nH]nc(C8CC8)c7c6)ccc5n4CC4CCO4)CC3)c2O1 (stereo not drawn) [Compound 294] | 1.02
O=C(Nc1cnn2[nH]ccc12)c1ccc2c(c1)nc(CN1CC=C(c3cccc(OCc4ccc(Cl)cc4F)n3)CC1)n2C[C@@H]1CCO1 [Compound 401] | 21.8
Cc1n[nH]c2ccc(NC(=O)c3ccc4nc(CN5CC=C(c6cccc(OCc7ccc(C#N)cc7F)n6)CC5)n(CC5CCO5)c4c3)cc12 (stereo not drawn) [Compound 275] | 6.21
Nc1ncc2c(ncn2C(=O)c2ccc3c(c2)nc(CN2CCC(c4cccc(OCc5ccc(Cl)cc5F)n4)CC2)n3C[C@@H]2CCO2)n1 [Compound 78] | 23.1
Cc1n[nH]c2c(C(F)F)cc(C(=O)Nc3ccc4c(c3)nc(CN3CC=C(c5cccc(OCc6ccc(Cl)cc6F)n5)CC3)n4C[C@@H]3CCO3)cc12 [Compound 220] | 0.44
Cc1n[nH]c2ccc(NC(=O)c3ccc4c(c3)nc(CN3CC=C(c5cccc(OCc6ccc(C#N)cc6F)n5)CC3)n4C[C@@H]3CCO3)cc12 [Compound 187] | 0.2
Cc1cc(NC(=O)c2ccc3c(c2)nc(CN2CCC(c4cccc5c4OC(C)(c4ccc(Cl)cc4F)O5)CC2)n3CC2CCO2)cc2c(C(F)(F)F)n[nH]c12 (stereo not drawn) [Compound 332] | 1.58
Cc1cc(C(=O)Nc2ccc3c(c2)nc(C2CC24CCN(c2cccc(OCc5ccc(Cl)cc5F)n2)CC4)n3C[C@@H]2CCO2)cc2[nH]c(=O)[nH]c12 (stereo partly drawn) [Compound 249] | 0.44
O=C(Nc1ccc2nc(CN3CC=C(c4cccc(OCc5ccc(Cl)cc5F)n4)CC3)n(CC3CCO3)c2c1)c1ccc2[nH]nc(F)c2c1 (stereo not drawn) [Compound 280] | 21
Cc1n[nH]c2ccc(NC(=O)c3ccc4c(c3)nc(CN3CCC(c5cccc6c5OC(C)(c5ccc(Cl)cc5F)O6)CC3)n4CC3CCO3)cc12 (stereo not drawn) [Compound 336] | 1.03
CCc1n[nH]c2ccc(NC(=O)c3ccc4c(c3)nc(CN3CC=C(c5cccc(OCc6ccc(C#N)cc6F)n5)CC3)n4C[C@@H]3CCO3)cc12 [Compound 186] | 2.12
Cc1n[nH]c2c(C)cc(C(=O)Nc3ccc4nc(CN5CC=C(c6cccc(OCc7ccc(Cl)cc7F)n6)CC5)n(CC5CCO5)c4c3)cc12 (stereo not drawn) [Compound 279] | 0.95
Cc1n[nH]c2c(C(F)(F)F)cc(C(=O)Nc3ccc4nc(CN5CC=C(c6cccc(OCc7ccc(Cl)cc7F)n6)CC5)n(CC5CCO5)c4c3)cc12 (stereo not drawn) [Compound 287] | 2.98
O=C(Nc1ccc2c(c1)nc(CN1CC=C(c3cccc(OCc4ccc(Cl)cc4F)n3)CC1)n2C[C@@H]1CCO1)c1ccc2[nH]nnc2c1 [Compound 241] | 0.31
Cc1cc2c(C#N)ccc(COc3cccc(C4=CCN(Cc5nc6cc(NC(=O)c7ccc8[nH]nc(C)c8c7)ccc6n5C[C@@H]5CCO5)CC4)n3)c2o1 [Compound 358] | 0.98
Cc1n[nH]c2c(C(F)(F)F)cc(NC(=O)c3ccc4c(c3)nc(CN3CC=C(c5cccc6c5O[C@](C)(c5ccc(Cl)cc5F)O6)CC3)n4CC3CCO3)cc12 (stereo partly drawn) [Compound 389] | 2.81
Cc1cc(NC(=O)c2ccc3c(c2)nc(CN2CCC(c4cccc(OCc5ccc(Cl)cc5F)n4)CC2)n3C[C@@H]2CCO2)c(C)c2c(C)n[nH]c12 [Compound 120] | 15.3
COc1n[nH]c2ccc(NC(=O)c3ccc4c(c3)nc(CN3CCC(c5cccc(OCc6ccc(Cl)cc6F)n5)CC3)n4C[C@@H]3CCO3)cc12 [Compound 81] | 14.5
